Experimental findings from patent publication US20190367520A1, “NEW COMPOUND HAVING FGFR INHIBITORY ACTIVITY AND PREPARATION AND APPLICATION THEREOF” (SHANGHAI INSTITUTE OF MATERIA MEDICA, CHINESE ACADEMY OF …, priority 2016, published 2019) are described below.

Data set [1] concerns the target FGFR1 kinase domain recombinant protein (Homo sapiens, UniProt P11362). Description: FGFR1 enzyme activity at molecular level (ELISA, Poly(Glu,Tyr) 4:1 substrate). On the technique in general: In an ELISA, binding on a coated surface is turned into a signal by an enzyme label.
Procedure: (§1) The plate was placed at 37° C. for 12-16 hours. The liquid in the well was discarded, the plate was washed, and the panel was washed three times with 200 μL/well of T-PBS (PBS containing 0.1% Tween-20) for 5 minutes each time.
(§2) 50 μL of ATP solution diluted with reaction buffer (50 mM HEPES pH 7.4, 50 mM MgCl2, 0.5 mM MnCl2, 0.2 mM Na3VO4, 1 mM DTT) was added to each well to a final concentration of 5 μM. The compound was diluted to a suitable concentration in DMSO, 1 μL/well or containing the corresponding concentration of DMSO (negative control well), and the FGFR1, FGFR4 kinase domain recombinant protein diluted in 49 μL of reaction buffer was added to initiate the reaction. Two control wells without ATP were required for each experiment. The reaction was carried out for 1 hour at 37° C. on a shaker (100 rpm). The plate was washed three times with T-PBS. Primary antibody, PY99 dilution was added at 100 μL/well and shaken at 37° C. for 0.5 hour. The plate was washed three times with T-PBS. Secondary antibody, horseradish peroxidase-labeled goat anti-mouse IgG dilution was added at 100 μL/well, and shaken at 37° C. for 0.5 hour. […] (Ultrasound was required for the dissolution of OPD, and the chromogenic solution needed to be prepared when used). 2 M H2SO4 was added at 50 μL/well to quench the reaction and a tunable wavelength microplate reader SPECTRA MAX 190 was used at a wavelength of 490 nm.
(§3) The inhibition rate of the sample was obtained by the following formula:
(§4) The IC50 value was obtained by four-parameter regression using the software attached to the microplate reader.
The target in data set [2] is FGFR4 kinase domain recombinant protein (Homo sapiens, UniProt P22455). The data set is described as follows: FGFR4 enzyme activity at molecular level (ELISA, Poly(Glu,Tyr) 4:1 substrate).
Sequence of FGFR4 kinase domain recombinant protein (P22455 467-755 limits assumed): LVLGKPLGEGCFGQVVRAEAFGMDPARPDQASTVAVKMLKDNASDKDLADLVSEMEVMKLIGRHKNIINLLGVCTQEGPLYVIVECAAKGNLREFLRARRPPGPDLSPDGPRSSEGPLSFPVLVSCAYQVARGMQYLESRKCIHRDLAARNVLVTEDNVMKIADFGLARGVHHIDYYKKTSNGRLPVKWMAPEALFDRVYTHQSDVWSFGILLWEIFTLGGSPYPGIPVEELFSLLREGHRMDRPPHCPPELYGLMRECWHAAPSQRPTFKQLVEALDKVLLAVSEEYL
Procedure: as §1, §2, §3, §4
The test system of another data set is SNU16 cells. The data set is described as follows: SNU16 cell proliferation (CCK-8, 72 h). The conditions noted are these: Homo sapiens, SNU-16, read-out: SNU16 (IC50 class). Type of data set: cell-based. The protocol: The inhibitory effect of the compound on SNU16 cells proliferation was examined by CCK-8 Cell Counting Kit (Dojindo). The specific steps are as follows: SNU16 cells in logarithmic growth phase were inoculated into a 96-well culture plate at a suitable density, 90 μL per well, and cultured overnight, different concentrations of compounds were added for 72 hr, and the solvent control group was set (negative control). After the cells were treated by the compound for 72 h, the effect of the compound on cell proliferation was detected by CCK-8 cell counting kit (Dojindo). 10 μL of CCK-8 reagent was added to each well and placed in a 37° C. incubator for 2-4 hours. The full-wavelength microplate reader SpectraMax 190 was used at a measure wavelength of 450 nm.

The subject of data set [3] is human lung cancer NCI-H1581 transplanted tumor. Description: Growth of transplanted tumor of human lung cancer NCI-H1581 in nude mice. Type of data set: in vivo, nude mouse. The conditions noted are these: for T/C (%) relative tumor proliferation rate: d14; for body weight change of the animals / tumor volume change of the animals: po, 14 days. The protocol:
The tumor tissue in the vigorous growth period was cut into about 1.5 mm^3, and inoculated subcutaneously in the right axilla of nude mouse under aseptic conditions. The diameter of transplanted subcutaneously tumor in the nude mouse was measured with a vernier caliper. The mice were randomly divided into groups after the tumor was grown to an average volume of about 90 mm 3. The compound No. 12 obtained in Example 12 was orally administered once a day at a dose of 100 mg/kg and 20 mg/kg, respectively, for 14 days, and the growth inhibition effects of compound NO. 12 on subcutaneously transplanted tumor in human lung cancer NCI-H1581 nude mouse were measured.
In the solvent control group, an equal amount of physiological saline was given. During the entire experiment, the diameter of the transplanted tumor was measured twice a week, and the body weight of the mice was weighed. The tumor volume (TV) is calculated as: TV=½×a×b^2, where a and b represent length and width, respectively. According to the measured results, the relative tumor volume (RTV) was calculated as: RTV=Vt/V0, wherein V0 was the tumor volume measured when the mouse was administered in cage (i.e. d0), Vt was the tumor volume at each measurement.
On the day of the end of the experiment, 2 hours after administration, blood samples and tumor tissues of each group were collected and preserved.

The next data set has as its target EGFR (Homo sapiens, UniProt P00533). The data set is described as follows: Inhibitory activity on EGFR enzyme activity. Type of data set: biochemical.

Sequence of FGFR1 kinase domain recombinant protein (P11362 478-767 limits assumed): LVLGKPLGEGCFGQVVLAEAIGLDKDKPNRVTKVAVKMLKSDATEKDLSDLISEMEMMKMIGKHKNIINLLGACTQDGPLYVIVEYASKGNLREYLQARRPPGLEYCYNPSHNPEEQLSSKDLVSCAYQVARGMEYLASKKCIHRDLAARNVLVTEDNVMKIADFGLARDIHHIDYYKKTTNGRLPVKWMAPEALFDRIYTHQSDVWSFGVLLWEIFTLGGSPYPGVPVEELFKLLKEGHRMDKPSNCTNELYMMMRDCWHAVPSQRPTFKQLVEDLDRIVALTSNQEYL
Sequence of EGFR (P00533 25-1210, species assumed): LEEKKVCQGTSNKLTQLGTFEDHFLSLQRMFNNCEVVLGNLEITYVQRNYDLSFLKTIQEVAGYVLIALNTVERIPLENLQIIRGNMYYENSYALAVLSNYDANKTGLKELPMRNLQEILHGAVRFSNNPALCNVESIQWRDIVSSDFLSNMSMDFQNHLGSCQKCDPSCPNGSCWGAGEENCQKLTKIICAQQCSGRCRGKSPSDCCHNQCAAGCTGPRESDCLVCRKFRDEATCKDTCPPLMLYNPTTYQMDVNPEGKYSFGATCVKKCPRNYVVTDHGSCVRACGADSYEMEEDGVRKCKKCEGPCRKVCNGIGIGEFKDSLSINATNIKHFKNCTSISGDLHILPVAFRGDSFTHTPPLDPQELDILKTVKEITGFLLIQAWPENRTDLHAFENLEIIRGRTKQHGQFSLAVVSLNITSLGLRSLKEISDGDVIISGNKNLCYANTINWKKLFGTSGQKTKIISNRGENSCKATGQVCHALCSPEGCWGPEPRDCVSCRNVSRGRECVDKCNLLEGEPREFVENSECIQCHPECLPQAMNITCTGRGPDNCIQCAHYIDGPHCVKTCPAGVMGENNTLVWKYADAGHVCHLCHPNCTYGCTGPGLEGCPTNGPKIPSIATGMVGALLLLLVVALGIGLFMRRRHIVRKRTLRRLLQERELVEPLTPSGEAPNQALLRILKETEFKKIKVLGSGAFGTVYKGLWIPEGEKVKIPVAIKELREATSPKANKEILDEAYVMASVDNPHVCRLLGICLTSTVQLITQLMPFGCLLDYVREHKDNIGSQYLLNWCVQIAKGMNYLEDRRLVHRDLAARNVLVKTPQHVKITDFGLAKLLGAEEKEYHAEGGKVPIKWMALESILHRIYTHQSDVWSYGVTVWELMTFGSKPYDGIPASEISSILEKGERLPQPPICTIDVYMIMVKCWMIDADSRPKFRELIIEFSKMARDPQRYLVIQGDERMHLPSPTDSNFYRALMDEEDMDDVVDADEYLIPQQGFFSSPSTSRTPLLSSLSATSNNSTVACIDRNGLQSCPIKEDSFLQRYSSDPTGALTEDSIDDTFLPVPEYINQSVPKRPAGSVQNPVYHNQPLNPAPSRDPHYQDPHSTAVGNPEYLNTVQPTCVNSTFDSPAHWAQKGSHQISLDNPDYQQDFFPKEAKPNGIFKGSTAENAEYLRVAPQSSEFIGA

In general, IC50 refers to the point on the concentration scale where inhibition reaches its midpoint. Consider `C=CC(=O)N1CCC(n2nc(-c3cc4cc(C)cc(OC)c4s3)c3c(N)ncnc32)C1` (stereo not shown) [NO. 2, 1-(3-(4-amino-3-(7-methoxy-5-methylbenzothiophene-2-yl)-1H-pyrazole[3,4-d]pyrimidine-1-yl)pyrrolidine-1-yl)prop-2-en-1-one], for which the results for the IC50 (in data set [1]; in data set [2]; in the data set on SNU16 cells) were below 0.01 µM, 0.01 to 0.1 µM and below 0.01 µM, respectively.

Turning to `C=CC(=O)N1CC(n2nc(-c3cc4cc(C)cc(OC)c4s3)c3c(N)ncnc32)C1` [NO. 26, 1-(3-(4-amino-3-(7-methoxy-5-methylbenzothiophene-2-yl)-1H-pyrazole[3,4-d]pyrimidine-1-yl)azetidine-1-yl)prop-2-en-1-one], the IC50 in data set [1] is below 0.01 µM; in data set [2], below 0.01 µM; in the data set on SNU16 cells, above 0.1 µM.

As for `C=CS(=O)(=O)N1CC(n2cc(-c3cc4cc(C)cc(OC)c4s3)c3c(N)ncnc32)C1` [NO. 28, 5-(7-methoxy-5-methylbenzothiophene-2-yl)-7-(1-(vinylsulfonyl)azetidine-3-yl)-7H-pyrrole[2,3-d]pyrimidine-4-amine], the IC50 in data set [1] was below 0.01 µM; with SNU16 cells, above 0.1 µM.

Consider `C#CC(=O)N1CC(n2nc(-c3cc4cc(C)cc(OC)c4s3)c3c(N)ncnc32)C1` [NO. 27], for which the IC50 was below 0.01 µM in data set [1], 0.01 to 0.1 µM in data set [2] and above 0.1 µM in the data set on SNU16 cells.

As for `C=CC(=O)N1CCC(n2cc(-c3cc4cc(C)cc(OC)c4s3)c3c(N)ncnc32)C1` (stereo not shown) [NO. 1, 1-(3-(4-amino-5-(7-methoxy-5-methylbenzothiophen-2-yl)-7H-pyrrole[2,3-d]pyrimidine-7-yl)pyrrolidine-1-yl)prop-2-en-1-one], the IC50 (in data set [1]; in data set [2]; with SNU16 cells) was below 0.01 µM throughout.

Consider `COc1cc(C)cc2cc(-c3nn([C@H]4CCN(C(=O)/C=C/CN(C)C)C4)c4ncnc(N)c34)sc12` [NO. 38], for which the half-inhibitory concentration (IC50) in data set [1] is below 0.01 µM; in data set [2] it was above 0.1 µM; with SNU16 cells, below 0.01 µM.

Take `C=CC(=O)N1CC[C@H](n2cc(-c3cc4cc(C)cc(OC)c4s3)c3c(N)ncnc32)C1` [NO. 12, (S)-1-(3-(4-amino-5-(7-methoxy-5-methylbenzothiophene-2-yl)-7H-pyrrole[2,3-d]pyrimidine-7-yl)pyrrolidine-1-yl)prop-2-en-1-one]: the “T/C (%) relative tumor proliferation rate” value is 31.28% in data set [3] (20 mg/kg qd/14 po) and 2.9% in data set [3] (100 mg/kg qd/14 po). Further, the “body weight change of the animals” value is recorded as 24.2% in data set [3] (20 mg/kg) and −5.9% in data set [3] (100 mg/kg). Besides, the “tumor volume change of the animals” value in data set [3] (20 mg/kg) is 1500%; in data set [3] (100 mg/kg), 54.8%. Besides, the IC50 was above 1 µM against EGFR, below 0.01 µM in data set [1] and below 0.01 µM in data set [2]. Further, on EGFR (conclusion from Table 3), the “EGFR inhibitory activity (in words)” value was “substantially no EGFR inhibitory activity”.

Turning to `C#CC(=O)N1CC[C@H](n2nc(-c3cc4cc(C)cc(OC)c4s3)c3c(N)ncnc32)C1` [NO. 39, (S)-1-(3-(4-amino-3-(7-methoxy-5-methylbenzothiophene-2-yl)1H-pyrazolo[3,4-d]pyrimidine-1-yl)pyrrolidin-yl)prop-2-yn-1-one], the IC50 in data set [1] is below 0.01 µM; in data set [2], below 0.01 µM; in the data set with SNU16 cells, above 0.1 µM.

On to `C=C(F)C(=O)N1CC(n2cc(-c3cc4cc(C)cc(OC)c4s3)c3c(N)ncnc32)C1` [NO. 29], for which the IC50 in data set [1] is below 0.01 µM; in data set [2], 0.01 to 0.1 µM; with SNU16 cells, below 0.01 µM.

For the compound `C=CC(=O)N1CCC(n2cc(-c3ccc4[nH]c(C)nc4c3)c3c(N)ncnc32)C1` (stereo not shown) [NO. 36, 1-(3-(4-amino-5-(2-methyl-1H-benzimidazol-5-yl)-7H-pyrrole[2,3-d]pyrimidine-7-yl)pyrrolidine-1-yl)prop-2-en-1-one], the IC50 in data set [1] is 0.01 to 0.1 µM; in data set [2], 0.01 to 0.1 µM; in the data set with SNU16 cells it was above 0.1 µM.

As for `C=CC(=O)N1CC(n2cc(-c3cc4c(OC)ccc(OC)c4s3)c3c(N)ncnc32)C1` [NO. 41, 1-(3-(4-amino-5-(4,7-dimethoxybenzothiophen-2-yl)-7H-pyrrole[2,3-d]pyrimidine-7-yl)azetidine-1-yl)prop-2-en-1-one], the IC50 with SNU16 cells was in the range of 0.01 to 0.1 µM.

`C=CS(=O)(=O)N1CC[C@H](n2nc(-c3cc4cc(C)cc(OC)c4s3)c3c(N)ncnc32)C1` [NO. 40]: the IC50 in data set [1] was below 0.01 µM; in data set [2] it was below 0.01 µM; in the data set with SNU16 cells it was above 0.1 µM.

On to `C=C(CN1CCOCC1)C(=O)N1CC(n2cc(-c3cc4cc(C)cc(OC)c4s3)c3c(N)ncnc32)C1` [NO. 31, 1-(3-(4-amino-5-(7-methoxy-5-methylbenzothiophene-2-yl)-7H-pyrrole[2,3-d]pyrimidine-7-yl)azetidine-1-yl)-2-(morpholinomethylene)prop-2-en-1-one], for which the IC50 (in data set [1]; in data set [2]; with SNU16 cells) was below 0.01 µM in each case.
